Like-named read-outs stand apart in the source and are kept apart here.
What was measured:
HCT116/R = assay: colorimetric cell growth test, medication incubated 48 hours; conditions: for relative resistance (IC50 resistant clone / IC50 parental clone): HCT116/R versus HCT116; for crossed resistance: HCT116R versus HCT116; for IC50: read-out: IC50 (concentration that reduces cell growth by 50%)
SW620 = assay: as above; conditions: for relative resistance (IC50 resistant clone / IC50 parental clone): SW620 (parental clone); for IC50: read-out: IC50 (concentration that reduces cell growth by 50%)
HCT116 = assay: as above; conditions: for relative resistance (IC50 resistant clone / IC50 parental clone): HCT116 (parental clone); for IC50: read-out: IC50 (concentration that reduces cell growth by 50%)
SW620/R = assay: as above; conditions: for relative resistance (IC50 resistant clone / IC50 parental clone): SW620/R versus SW620; for crossed resistance: SW620R versus SW620; for IC50: read-out: IC50 (concentration that reduces cell growth by 50%)
Bax in HCT116/R1 cells [1] = assay: Bax activation, active-conformation antibody, flow cytometry; format: cell-based; conditions: HCT116/R1, 12, 24 or 48 hours with 15 μM, compared to HCT116/S
Method: (§1) Legend to FIGS. 4A to 4C: Detection of activation of Bax by an antibody specific for the active conformation of Bax and intracellular analysis by flow cytometry. The cells are fixed, permeabilized and then incubated with the antibody specific for the active conformation of […]. Finally visualization is carried out by incubation with the secondary antibody coupled with FITC. The labeling of untreated cells is shown by the curve in fine black line. That of treated cells (12, 24 or 48 hours with 15 μM oxaliplatin) is shown by the curves in thick black line. The appearance of strongly labeled cells (curves in thick black line shifted to the right) gives evidence of activation of Bax.

Bax in HCT116/Rev1 cells [2] = assay: as above; format: cell-based; conditions: HCT116/Rev1, 12, 24 or 48 hours with 15 μM
Method: as §1

HCT116/R1 = assay: oxaliplatin resistance of variant line versus HCT116/S; format: cell-based; conditions: HCT116/R1 clone
From the text: the line HCT116/R1 derived from the line HCT116 after acquisition of oxaliplatin resistance and cloning (corresponding to a clone 30 times more resistant than the sensitive reference line HCT116/S),

SW620R [3] = assay: degree of apoptosis by cytofluorometry, annexine V labeling; format: cell-based; conditions: treated 48 hours
Method: (§2) A control is performed without contact with any medication (Co). The degree of apoptosis is then determined by cytofluorometry using labeling by annexine V. Independently, activation of the apoptosis effector protein Caspase 3 was evaluated in cells HCT116 and HCT116R after treatment for 24 hours with oxaliplatin in order to validate the entry into apoptosis of the cells as observed by cytofluorometry (FIG. 2C).

[4] = system: Caspase 3 in HCT116R cells; assay: activation of apoptosis effector protein Caspase 3; format: cell-based; conditions: treated 24 hours
Method: as §2

Bak in HCT116/Rev1 cells = assay: Bak activation, active-conformation antibody, flow cytometry; format: cell-based; conditions: HCT116/Rev1, 12, 24 or 48 hours with 15 μM
Method: (§3) Legend to FIGS. 5A to 5E: Detection of activation of Bak by an antibody specific for the active conformation of Bak and intracellular analysis by flow cytometry. The cells are fixed, made permeable and then incubated with the antibody specific for the active conformation of […]. Finally visualization is carried out by incubation with the secondary antibody coupled to FITC. Labeling of untreated cells is shown by the curve in the fine black line. That of treated cells (12, 24 or 48 hours with 15 μM oxaliplatin) is shown by the curves in the thick black line. The appearance of strongly labeled cells (curves in the thick black line shifted to the right) gives evidence of activation of Bak. This experiment was reproduced two times.

Bak in HCT116/R2 cells = assay: as above; format: cell-based; conditions: HCT116/R2, 12, 24 or 48 hours with 15 μM
Method: as §3

Bak in HCT116/R1 cells = assay: as above; format: cell-based; conditions: HCT116/R1, 12, 24 or 48 hours with 15 μM
Method: as §3

Bak in HCT116/Rev2 cells = assay: as above; format: cell-based; conditions: HCT116/Rev2, 12, 24 or 48 hours with 15 μM
Method: as §3

HCT116/Rev2 = assay: oxaliplatin resistance of variant line versus HCT116/S; format: cell-based; conditions: HCT116/Rev2, after culture without oxaliplatin for 15 months
From the text: the variant HCT116/Rev2 derived from the line HCT116/R2 after culture in the absence of oxaliplatin for 15 months. This variant is characterized by an only partial loss of oxaliplatin resistance (variant HCT116/Rev2 is 16 times more resistant than line HCT116/S).

HCT116R [5] = conditions: treated 48 hours
Method: A control is performed without contact with any medication (Co).

HCT116/Rev1 = assay: oxaliplatin sensitivity of variant line versus HCT116/S; format: cell-based; conditions: HCT116/Rev1, after culture without oxaliplatin for 6 months
From the text: the variant HCT116/Rev1 derived from the line HCT116/R1 after culture in the absence of oxaliplatin for 6 months.

Bax in HCT116/S cells = assay: overall level of Bax expression on exposure to oxaliplatin; format: cell-based
From the text: (§4) The overall level of Bax expression is equivalent for the lines HCT116/S, HCT116/R1 and HCT116/Rev1.

Bax in HCT116/R1 cells [6] = assay: as above; format: cell-based
From the text: as §4

Bax in HCT116/Rev1 cells [7] = assay: as above; format: cell-based
From the text: as §4

[8] = system: Bax protein in HCT116R cells; assay: detection of Bax by Western blot; format: cell-based; conditions: 15 μM for 48 hours (or 50 μM for 24 hours)
Method: (§5) Legend to FIG. 1: detection of Bax by Western blot in the absence of, or under the effect of treatment, with oxaliplatin in the HCT116 model. The cells are not treated or treated with oxaliplatin at a level of 15 μM for 48 hours (or 50 μM for 24 hours) before preparation of cell lysates. Tubulin expression is used as a control of equivalent protein deposits.

[9] = system: Bax protein in HCT116 cells; assay: detection of Bax by Western blot; format: cell-based; conditions: HCT116, 15 μM for 48 hours (or 50 μM for 24 hours)
Method: as §5

SW620R [10] = assay: degree of apoptosis by cytofluorometry, Mitocapture dye; format: cell-based; conditions: treated 24 hours
Method: (§6) Legend to FIGS. 3A and 3B: cells HCT116 (and R) and SW620 (and R) are treated, prior to determination of the degree of apoptosis, for 24 hours by arsenic trioxide (As), lonidamine (LND) or are left without treatment (control, Co). The degree of apoptosis is then determined by cytofluorometry after labeling with the dye “Mitocapture” which fluoresces differently in apoptotic cells and intact cells (with relation to mitochondrial integrity).

HCT116R [11] = assay: as above; format: cell-based; conditions: treated 24 hours
Method: as §6

[12] = HCT116/R, 48 hours, average ± SD, at least three experiments
[13] = SW620, 48 hours, average ± SD, at least three experiments
[14] = HCT116, 48 hours, average ± SD, at least three experiments
[15] = SW620/R, 48 hours, average ± SD, at least three experiments

N.N.[Cl][Pt][Cl] [Cisplatin]
relative resistance (IC50 resistant clone / IC50 parental clone) (HCT116/R): (2.9) | crossed resistance (HCT116/R): very little or no crossed resistance | IC50 (HCT116/R; [12]): 13.4 ± 6.6 µM | relative resistance (IC50 resistant clone / IC50 parental clone) (SW620): (1.0) | IC50 (SW620; [13]): 7 ± 1.7 µM | relative resistance (IC50 resistant clone / IC50 parental clone) (HCT116): (1.0) | IC50 (HCT116; [14]): 4.7 ± 1.8 µM | relative resistance (IC50 resistant clone / IC50 parental clone) (SW620/R): (1.4) | crossed resistance (SW620/R): very little or no crossed resistance | IC50 (SW620/R; [15]): 9 ± 1.7 µM

CCc1c2c(nc3ccc(OC(=O)N4CCC(N5CCCCC5)CC4)cc13)-c1cc3c(c(=O)n1C2)COC(=O)[C@]3(O)CC [Irinotecan]
crossed resistance (HCT116/R): very little or no crossed resistance | IC50 (HCT116/R; Homo sapiens, HCT-116, 48 h): 9.5 ± 4.2 µM | IC50 (SW620; Homo sapiens, SW-620, 48 h): 23.3 ± 0.6 µM | IC50 (HCT116; Homo sapiens, HCT-116, 48 h): 7.7 ± 3.8 µM | IC50 (SW620/R; Homo sapiens, SW-620, 48 h): 11.7 ± 2.5 µM | crossed resistance (SW620/R): very little or no crossed resistance

O=C1[O][Pt]2([NH][C@@H]3CCCC[C@H]3[NH]2)[O]C1=O [Oxaliplatin, [(1R, 2R)-1,2-cyclohexanediamine-N,N′] [oxalato (2-)-O,O′] platinum]
relative resistance (IC50 resistant clone / IC50 parental clone) (HCT116/R): 68.4 | IC50 (HCT116/R; [12]): 21.9 ± 6.3 µM | activation of Bax (Bax in HCT116/R1 cells [1]): reduced and delayed | activation of Bax (Bax in HCT116/Rev1 cells [2]): return to early activation of Bax | times more resistant than sensitive reference line HCT116/S (HCT116/R1): 30 times | induction of apoptosis (annexine V) (SW620R [3]): resist induction of apoptosis | relative resistance (IC50 resistant clone / IC50 parental clone) (SW620): 1.0 | IC50 (SW620; [13]): 3.4 ± 0.6 µM | relative resistance (IC50 resistant clone / IC50 parental clone) (HCT116): 1.0 | IC50 (HCT116; [14]): 0.32 ± 0.08 µM | relative resistance (IC50 resistant clone / IC50 parental clone) (SW620/R): 18.3 | times more resistant than the original line (SW620/R; SW620R versus SW620, as stated in text): 20 times | IC50 (SW620/R; [15]): 62.3 ± 12.9 µM | activation of caspase 3 [4]: lack of activation of caspase 3 | activation of Bak (Bak in HCT116/Rev1 cells): repeat the level of activation of Bak of the sensitive line HCT116/S | activation of Bak (Bak in HCT116/R2 cells): delayed | activation of Bak (Bak in HCT116/R1 cells): delayed | activation of Bak (Bak in HCT116/Rev2 cells): repeat the level of activation of Bak of the sensitive line HCT116/S | times more resistant than line HCT116/S (HCT116/Rev2): 16 times | induction of apoptosis (annexine V) (HCT116R [5]): resist induction of apoptosis | oxaliplatin sensitivity (HCT116/Rev1): comparable to HCT116/S | overall level of Bax expression (Bax in HCT116/S cells): induces an over-expression of Bax | overall level of Bax expression (Bax in HCT116/R1 cells [6]): induces an over-expression of Bax | overall level of Bax expression (Bax in HCT116/Rev1 cells [7]): induces an over-expression of Bax | Bax protein expression (Western blot) [8]: does not express the Bax protein | Bax protein expression (Western blot) [9]: over-expresses it

O=C(O)c1nn(Cc2ccc(Cl)cc2Cl)c2ccccc12 [lonidamine]
apoptotic induction (Mitocapture) (SW620R [10]): resistant to apoptotic induction | apoptotic induction (Mitocapture) (HCT116R [11]): resistant to apoptotic induction

From patent publication US20060093575A1, “Oxaliplatin anti-resistance agent” (CENTRE NATIONAL DE LA RECHERCHE SCIENTIFIQUE, priority 2002, published 2006)
